Patent US20240300904A1, “PYRIDAZINONES FOR THE TREATMENT OR PREVENTION OF HYPERTENSION” (UNIVERSITETET I OSLO, priority 2021, published 2024)

Tests used:
β1-adrenergic receptor = target: T1, β1-adrenergic receptor (Homo sapiens, UniProt P08588); assay: Safety pharmacology panel (SafetyScan E/IC50 ELECT); type: cell-based; conditions: minor activity; 78-target panel
T1 construct: purchased Discover X/Eurofins SafetyScan E/IC50 ELECT

[1] = target: T2, human (h) natriuretic peptide receptor A (hNPR-A) (Homo sapiens, UniProt P16066); assay: AlphaScreen assay for cGMP: BNP-mediated NPR-A activity (cGMP production); type: cell-based; conditions: conc. response of compound + 0.1 nM BNP
T2 construct: expressed in transfected cells
T2 sequence (P16066 33-1061): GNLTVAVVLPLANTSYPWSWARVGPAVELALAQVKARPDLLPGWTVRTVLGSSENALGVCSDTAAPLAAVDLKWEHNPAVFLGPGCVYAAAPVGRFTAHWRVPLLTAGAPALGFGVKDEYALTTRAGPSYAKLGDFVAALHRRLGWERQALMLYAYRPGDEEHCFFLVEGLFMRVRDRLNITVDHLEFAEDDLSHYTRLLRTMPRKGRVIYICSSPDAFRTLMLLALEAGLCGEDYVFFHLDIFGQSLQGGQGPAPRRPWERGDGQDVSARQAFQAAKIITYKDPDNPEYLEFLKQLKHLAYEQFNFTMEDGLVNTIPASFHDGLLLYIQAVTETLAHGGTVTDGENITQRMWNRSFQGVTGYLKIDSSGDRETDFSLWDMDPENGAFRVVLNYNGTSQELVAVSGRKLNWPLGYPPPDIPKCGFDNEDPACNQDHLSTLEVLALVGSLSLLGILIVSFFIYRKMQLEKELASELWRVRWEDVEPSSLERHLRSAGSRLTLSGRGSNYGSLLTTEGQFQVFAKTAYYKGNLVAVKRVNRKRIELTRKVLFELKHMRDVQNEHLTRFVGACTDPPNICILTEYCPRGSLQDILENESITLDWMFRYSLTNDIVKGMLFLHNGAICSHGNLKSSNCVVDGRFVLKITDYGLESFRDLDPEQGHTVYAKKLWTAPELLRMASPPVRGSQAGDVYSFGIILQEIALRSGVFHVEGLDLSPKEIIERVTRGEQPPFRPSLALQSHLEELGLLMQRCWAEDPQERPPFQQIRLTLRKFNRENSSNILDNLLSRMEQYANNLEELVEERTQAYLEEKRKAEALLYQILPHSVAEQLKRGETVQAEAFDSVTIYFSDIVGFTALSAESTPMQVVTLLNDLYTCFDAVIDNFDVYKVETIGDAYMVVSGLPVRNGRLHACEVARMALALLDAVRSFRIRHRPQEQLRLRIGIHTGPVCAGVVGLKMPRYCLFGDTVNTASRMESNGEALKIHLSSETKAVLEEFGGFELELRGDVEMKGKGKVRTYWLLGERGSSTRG
T2 sequence (P16860 103-134 partner limits assumed): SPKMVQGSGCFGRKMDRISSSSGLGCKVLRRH
Protocol: QBIHEK293A cells stably transfected with human (h) natriuretic peptide receptor A (hNPR-A) and hNPR-B were made as described in Bach et al., Naunyn Schmiedebergs Arch. Pharmacol. 2014; 387:5-14. Cells were grown in DMEM (Dulbecco's Modified Eagle's Medium, Gibco®, ThermoFischer Scientific) supplemented with 10% Fetal Bovine Serum (FBS), 100 U/ml penicillin, 0.1 mg/ml streptomycin, and 0.4 mg/ml G418 (geneticin) as selection antibiotic.
The AlphaScreen assay for cGMP (Perkin Elmer) was performed as described in Bach et al. (see above). NPR-A and NPR-B expressing HEK293 cells were split the day before the experiment and harvested using an EDTA solution (Versene, Invitrogen, ThermoFischer Scientific). A final concentration of 6000 cells/well was re-suspended in stimulation buffer (5 mM HEPES in HBSS at pH 7.4, 0.1% BSA) with IBMX (0.7 mM final). Compounds were dissolved in stimulation buffer and added to wells in increasing concentrations. Cells were incubated with the indicated compounds 20 minutes before addition of agonists (human BNP, human CNP or human proBNP) in various concentrations. Cells were stimulated for 20 minutes with agonist before the reactions were stopped (i.e. cells lysed) by adding the AlphaScreen Acceptor bead mix (Acceptor beads-anti-cGMP antibody and 0.5% Tween-20 in 5 mM HEPES buffer at pH 7.4). After 1 hour incubation, the Donor bead mix (Donor beads, biotinylated cGMP, 0.5% Tween-20 in 5 mM HEPES buffer at pH 7.4) was added (40 μl total volume) and incubation continued for 2 hours. The luminescence signals were analyzed quantitatively by reading of the plates on the EnVision® Multilabel Plate Reader (Perkin Elmer) using AlphaScreen emission 570 nm filter.

β2-adrenergic receptor = target: T3, β2-adrenergic receptor (Homo sapiens, UniProt P07550); assay: Safety pharmacology panel (SafetyScan E/IC50 ELECT); type: cell-based; conditions: minor activity; 78-target panel
T3 construct: purchased Discover X/Eurofins SafetyScan E/IC50 ELECT

HeLa cells = assay: MTT assay (cytotoxicity); type: cell-based; conditions: 24 and 48 h, compared with compounds 3 and 11
Protocol: Cells were incubated for 24 and 48 h with increasing concentrations of the indicated compound. The data represent formazan formation (absorbance) as a percentage of the negative control (1% DMSO).
The MTT (3-(4,5-dimethylthiazol-2-yl)-2,5-diphenyltetrazolium bromide) tetrazolium reduction assay was used to measure cytotoxicity of the compounds in vitro. Viable cells with active metabolism convert MTT into a purple colored formazan product with an absorbance maximum near 570 nm. HeLa cells were plated in 96-well plates in culture medium (DMEM (Dulbecco's Modified Eagle's Medium, Gibco®, ThermoFischer Scientific) supplemented with 10% Fetal Bovine Serum (FBS), 100 U/ml penicillin, 0.1 mg/ml streptomycin) the day before experiments. Cells were incubated for 24 or 48 h at 37° C. with increasing concentrations of each compound (in 1% DMSO). 1% DMSO and 20 mM H2O2 in culture medium were used as negative and positive control, respectively. MTT solution at a final concentration of 0.45 mg/ml was added to the wells and cells incubated for 1 to 4 hours at 37° C. Solubilization solution (40% (vol/vol) dimethylformamide (DMF), 2% (vol/vol) glacial acetic acid and 16% (wt/vol) sodium dodecyl sulfate (SDS)) was added to each well to dissolve formazan crystals. Absorbance was measured at 570 nm.

[2] = Cytotoxicity screening (Cyprotex Discovery Ltd.); type: cell-based
dopamine D1-receptor = target: T4, dopamine D1-receptor (Homo sapiens, UniProt P21728); assay: Safety pharmacology panel (SafetyScan E/IC50 ELECT); type: cell-based; conditions: minor activity; 78-target panel
T4 construct: purchased Discover X/Eurofins SafetyScan E/IC50 ELECT

rat aortic rings = assay: Vasorelaxation: ANP-mediated relaxation of rat aortic rings; conditions: conc. response of ANP in the absence (ANP) or presence of 10 μM compound, L-NAME present
Protocol: Male Sprague-Dawley (6-8 weeks old) rats were killed by cervical dislocation. The thoracic aorta was dissected and rings (˜4 mm length) mounted in organ baths containing physiological salt solution (PSS; composition in mM: NaCl 119, KCl 4.7, CaCl2 2.5, MgSO4 1.2, NaHCO3 25, KH2PO4 1.2, and glucose 5.5), maintained at 37° C. and gassed with 5% CO2 in O2. Changes in isometric tension were measured in the tissues under a basal tension of 1 g. After equilibration, vessels were repeatedly contracted with KCl (48 mM) until responses were reproducible. A cumulative concentration-response curve was then constructed to the thromboxane receptor agonist 9,11-dideoxy-11α,9α-epoxymethano-prostaglandin F2α (U46619; 10 nm-1 μM). Arteries were then treated with the nitric oxide synthase (NOS) inhibitor L-NG-nitroarginine methyl ester (300 μM; to block the production of endogenous nitric oxide) and pre-contracted with an EC80 concentration of U46619. Once a stable response was achieved, cumulative concentration-response curves were constructed to ANP (0.001-1 μM) in the absence or presence of Compound 1 or Compound 2 (all 10 μM, incubated for 30 min prior to the administration of ANP).

T4 sequence (P21728 whole entry): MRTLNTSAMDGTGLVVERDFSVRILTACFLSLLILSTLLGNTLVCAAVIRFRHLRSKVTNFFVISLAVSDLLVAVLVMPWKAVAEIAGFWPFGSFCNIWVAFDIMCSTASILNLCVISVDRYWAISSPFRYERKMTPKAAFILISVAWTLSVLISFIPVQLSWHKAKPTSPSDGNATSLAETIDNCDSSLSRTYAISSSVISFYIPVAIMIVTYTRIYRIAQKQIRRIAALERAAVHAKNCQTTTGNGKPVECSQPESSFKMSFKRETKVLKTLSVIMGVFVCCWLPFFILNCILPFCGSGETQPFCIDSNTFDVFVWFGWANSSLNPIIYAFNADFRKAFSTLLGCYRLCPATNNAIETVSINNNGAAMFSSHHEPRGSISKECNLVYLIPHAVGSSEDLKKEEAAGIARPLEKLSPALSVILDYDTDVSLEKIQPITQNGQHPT
T1 sequence (P08588 whole entry): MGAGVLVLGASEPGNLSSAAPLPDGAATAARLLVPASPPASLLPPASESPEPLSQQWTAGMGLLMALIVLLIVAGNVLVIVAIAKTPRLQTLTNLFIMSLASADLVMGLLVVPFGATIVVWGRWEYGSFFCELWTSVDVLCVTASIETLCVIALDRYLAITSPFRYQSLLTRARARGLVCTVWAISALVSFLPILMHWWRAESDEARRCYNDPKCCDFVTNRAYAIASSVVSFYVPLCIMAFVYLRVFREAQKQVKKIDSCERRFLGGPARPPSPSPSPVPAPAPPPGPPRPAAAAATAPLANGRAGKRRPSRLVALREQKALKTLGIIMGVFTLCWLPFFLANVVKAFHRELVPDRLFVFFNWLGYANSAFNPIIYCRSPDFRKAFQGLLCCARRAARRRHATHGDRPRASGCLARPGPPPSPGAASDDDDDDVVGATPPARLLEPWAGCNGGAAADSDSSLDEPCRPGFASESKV
T3 sequence (P07550 whole entry): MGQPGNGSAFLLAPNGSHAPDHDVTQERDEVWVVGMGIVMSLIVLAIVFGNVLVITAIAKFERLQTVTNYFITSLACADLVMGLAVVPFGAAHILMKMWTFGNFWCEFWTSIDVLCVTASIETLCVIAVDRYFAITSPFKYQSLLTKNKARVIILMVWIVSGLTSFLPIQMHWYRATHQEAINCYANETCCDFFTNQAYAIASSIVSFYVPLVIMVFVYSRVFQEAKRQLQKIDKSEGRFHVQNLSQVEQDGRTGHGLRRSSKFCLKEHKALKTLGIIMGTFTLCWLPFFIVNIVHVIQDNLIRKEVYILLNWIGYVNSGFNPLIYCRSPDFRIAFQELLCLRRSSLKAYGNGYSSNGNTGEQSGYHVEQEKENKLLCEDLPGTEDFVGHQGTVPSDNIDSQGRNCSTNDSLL

Row | Molecule | IC50 (β1-adrenergic receptor) | EC50 ([1]; NPR-A-expressing HEK293 cells, read-out: -LogEC50 (compound) (converted)) | Emax ([1]; percentage of maximum BNP-mediated cGMP production, read-out: Max Response) | IC50 (β2-adrenergic receptor) | toxicity in MTT assay relative to corresponding dichloro compounds (HeLa cells) | non-cytotoxic concentration relative to EC50 at the target ([2]; 15 μM versus EC50 of compound 24 at the target) | cytotoxic effects (cell count, nuclear size, DNA structure, cell membrane permeability, mitochondrial mass, mitochondrial membrane potential, cytochrome c) ([2]; at concentrations below 15 μM) | IC50 (dopamine D1-receptor) | -LogEC50 (ANP) (rat aortic rings)
1 | O=C(Cn1nccc(Cl)c1=O)c1ccc(Cl)cc1Cl [Compound 24, 4-chloro-2-(2-(2,4-dichlorophenyl)-2-oxoethyl) pyridazin-3(2H)-one] | > 6 µM | 0.2 µM | 37.8% | > 6 µM | lower toxicity | 70-80 fold | did not show any cytotoxic effects | > 6 µM | –
2 | ANP: atrial natriuretic peptide, endogenous NPR-A agonist used in vasorelaxation | – | – | – | – | – | – | – | – | 8.3
